Experiments:
[1] = Blood clearance in rat; assay type: ADME; conditions: whole blood
[2] = Oral bioavailability in rat; assay type: ADME, organism-based; conditions: in vivo
[3] = Oral bioavailability in monkey; assay type: ADME, organism-based, Macaca mulatta; conditions: rhesus monkey, in vivo
[4] = biological target: T1, Dual specificity mitogen-activated protein kinase kinase 7 (Homo sapiens, UniProt O14733); experiment: Inhibition of human N-terminal GST-tagged full length MAP2K7 expressed in baculovirus infected Sf21 insect cells in presence of 1 mM ATP
T1 sequence (O14733 whole entry): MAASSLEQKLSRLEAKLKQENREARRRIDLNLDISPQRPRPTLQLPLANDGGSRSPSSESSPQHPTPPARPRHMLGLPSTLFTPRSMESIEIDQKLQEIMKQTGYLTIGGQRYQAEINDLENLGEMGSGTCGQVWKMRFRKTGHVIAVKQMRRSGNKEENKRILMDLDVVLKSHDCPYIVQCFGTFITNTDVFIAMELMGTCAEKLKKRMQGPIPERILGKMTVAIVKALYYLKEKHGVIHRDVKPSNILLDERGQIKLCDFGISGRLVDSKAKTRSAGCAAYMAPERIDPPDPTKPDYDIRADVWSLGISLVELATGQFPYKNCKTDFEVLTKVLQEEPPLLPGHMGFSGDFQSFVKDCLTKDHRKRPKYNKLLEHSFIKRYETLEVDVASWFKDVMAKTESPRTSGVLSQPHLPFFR

[5] = Permeability in RRCK cells; assay type: ADME, cell-based, Canis lupus familiaris, MDCKII-LE; conditions: dog, MDCK; read-out: permeability
[6] = Unbound intrinsic clearance in mouse hepatocytes assessed per million cells; assay type: ADME, cell-based, Hepatocyte
[7] = Blood clearance in monkey; assay type: ADME, Macaca mulatta; conditions: rhesus monkey, whole blood
[8] = Volume of distribution at steady state in dog; assay type: ADME, Canis lupus familiaris; conditions: in vivo, read-out: Vdss
[9] = Blood clearance in dog; assay type: ADME, Canis lupus familiaris; conditions: whole blood
[10] = biological target: T2, Tyrosine-protein kinase Tec (Homo sapiens, UniProt P42680); experiment: Inhibition of full length human His-tagged TEC by KT178 probe based TR-FRET assay
T2 sequence (P42680 whole entry): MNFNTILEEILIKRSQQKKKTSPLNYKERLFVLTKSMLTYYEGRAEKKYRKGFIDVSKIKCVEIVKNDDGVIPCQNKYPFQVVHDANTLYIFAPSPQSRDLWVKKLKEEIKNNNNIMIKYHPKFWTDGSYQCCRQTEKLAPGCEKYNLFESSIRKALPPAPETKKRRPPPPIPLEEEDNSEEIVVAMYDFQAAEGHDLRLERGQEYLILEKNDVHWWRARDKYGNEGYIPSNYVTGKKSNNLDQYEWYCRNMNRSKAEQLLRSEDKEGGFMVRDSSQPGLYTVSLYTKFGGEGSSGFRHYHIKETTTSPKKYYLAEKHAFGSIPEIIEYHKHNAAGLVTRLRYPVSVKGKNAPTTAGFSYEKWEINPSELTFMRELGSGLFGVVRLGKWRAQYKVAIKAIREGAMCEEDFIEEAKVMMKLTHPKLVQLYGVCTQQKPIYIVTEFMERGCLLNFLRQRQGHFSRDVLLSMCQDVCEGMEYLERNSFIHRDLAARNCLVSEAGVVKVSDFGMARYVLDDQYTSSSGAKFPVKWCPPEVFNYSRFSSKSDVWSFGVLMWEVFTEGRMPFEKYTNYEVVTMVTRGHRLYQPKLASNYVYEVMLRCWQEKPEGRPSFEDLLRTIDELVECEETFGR

[11] = Volume of distribution at steady state in monkey; assay type: ADME, Macaca mulatta; conditions: rhesus monkey, in vivo; read-out: Vdss
[12] = Unbound intrinsic clearance in rat hepatocytes assessed per million cells; assay type: ADME, cell-based, Hepatocyte
[13] = Half life in monkey plasma; assay type: ADME, Macaca mulatta; conditions: rhesus monkey
[14] = Stability in human liver microsomes; assay type: ADME, microsome; conditions: read-out: Stability
[15] = Half-life in monkey blood; assay type: ADME, tissue-based, Macaca mulatta; conditions: rhesus monkey
[16] = biological target: Receptor tyrosine-protein kinase erbB-2 (Homo sapiens, UniProt P04626); experiment: Inhibition of human N-terminal His-tagged HER2 expressed in baculovirus expression system in presence of 1 mM ATP
[17] = biological target: T3, Tyrosine-protein kinase Blk (Homo sapiens, UniProt P51451); experiment: Inhibition of full length recombinant human His-tagged cytoplasmic BLK expressed in baculovirus expression system in presence of 1 mM ATP by KT236 probe based TR-FRET assay
[18] = biological target: T3, Tyrosine-protein kinase Blk; experiment: Inhibition of full length recombinant human His-tagged cytoplasmic BLK expressed in baculovirus expression system by KT236 probe based TR-FRET assay
[19] = Unbound intrinsic clearance in monkey hepatocytes assessed per million cells; assay type: ADME, cell-based, Macaca mulatta, Hepatocyte; conditions: rhesus monkey
[20] = Oral bioavailability in mouse; assay type: ADME, organism-based; conditions: in vivo
[21] = Stability in rat liver microsomes; assay type: ADME, microsome; conditions: read-out: Stability
[22] = Volume of distribution at steady state in rat; assay type: ADME; conditions: in vivo, read-out: Vdss
[23] = Volume of distribution at steady state in mouse; assay type: ADME, organism-based; conditions: in vivo, read-out: Vdss
[24] = Half-life in rat blood; assay type: ADME, tissue-based
[25] = biological target: Epidermal growth factor receptor (Homo sapiens, UniProt P00533); experiment: Inhibition of N-terminal GST-tagged human EGFR cytoplasmic domain expressed in baculovirus infected Sf21 insect cells in presence of 1 mM ATP
[26] = Unbound intrinsic clearance in human hepatocytes assessed per million cells; assay type: ADME, cell-based, Hepatocyte
[27] = Unbound intrinsic clearance in dog hepatocytes assessed per million cells; assay type: ADME, cell-based, Canis lupus familiaris, Hepatocyte
[28] = Blood clearance in mouse; assay type: ADME, organism-based; conditions: whole blood
[29] = Half life in dog plasma; assay type: ADME, Canis lupus familiaris
[30] = Oral bioavailability in dog; assay type: ADME, organism-based, Canis lupus familiaris; conditions: in vivo
[31] = Aqueous solubility of the compound; assay type: physicochemical
[32] = Half life in mouse plasma; assay type: ADME
[33] = Half life in rat plasma; assay type: ADME
[34] = Half-life in Sprague-Dawley rat blood at 1 uM by LC-MS/MS analysis; assay type: ADME, tissue-based
[35] = biological target: T4, Tyrosine-protein kinase TXK (Homo sapiens, UniProt P42681); experiment: Inhibition of recombinant human N-terminal GST-tagged TXK using GEPLYWSFPAKKK as substrate measured every 60 secs for 1 hr by PK/LDH coupled spectrophotometric assay
T4 sequence (P42681 whole entry): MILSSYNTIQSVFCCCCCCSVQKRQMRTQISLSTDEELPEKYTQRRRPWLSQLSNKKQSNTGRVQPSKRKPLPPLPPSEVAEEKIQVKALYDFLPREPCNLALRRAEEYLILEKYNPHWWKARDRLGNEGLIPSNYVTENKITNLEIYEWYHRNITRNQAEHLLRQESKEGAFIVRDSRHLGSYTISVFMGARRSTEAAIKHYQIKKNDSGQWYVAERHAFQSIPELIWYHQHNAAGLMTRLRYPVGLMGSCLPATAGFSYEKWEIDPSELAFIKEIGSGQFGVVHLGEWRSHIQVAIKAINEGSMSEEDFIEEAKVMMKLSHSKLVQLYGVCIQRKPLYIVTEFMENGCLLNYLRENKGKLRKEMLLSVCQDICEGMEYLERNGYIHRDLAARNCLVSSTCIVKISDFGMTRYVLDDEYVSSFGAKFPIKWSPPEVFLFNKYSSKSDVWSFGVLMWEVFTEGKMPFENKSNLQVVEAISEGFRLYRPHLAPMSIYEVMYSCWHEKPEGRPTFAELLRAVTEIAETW

T3 sequence (P51451 whole entry): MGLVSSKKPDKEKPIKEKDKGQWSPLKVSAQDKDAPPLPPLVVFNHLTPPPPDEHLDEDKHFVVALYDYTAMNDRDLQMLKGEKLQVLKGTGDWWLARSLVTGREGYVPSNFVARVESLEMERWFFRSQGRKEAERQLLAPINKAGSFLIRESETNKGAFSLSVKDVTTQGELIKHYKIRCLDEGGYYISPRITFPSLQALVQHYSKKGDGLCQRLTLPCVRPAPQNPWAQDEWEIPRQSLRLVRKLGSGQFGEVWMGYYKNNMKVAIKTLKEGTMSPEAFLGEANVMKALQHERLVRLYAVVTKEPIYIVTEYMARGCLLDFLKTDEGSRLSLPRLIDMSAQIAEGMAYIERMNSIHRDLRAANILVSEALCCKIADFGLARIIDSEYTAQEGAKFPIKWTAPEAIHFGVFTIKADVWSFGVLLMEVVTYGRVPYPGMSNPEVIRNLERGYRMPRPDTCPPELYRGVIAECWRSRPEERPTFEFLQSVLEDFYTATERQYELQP
Epidermal growth factor receptor, sequence (P00533 whole entry, the tested form may be a part): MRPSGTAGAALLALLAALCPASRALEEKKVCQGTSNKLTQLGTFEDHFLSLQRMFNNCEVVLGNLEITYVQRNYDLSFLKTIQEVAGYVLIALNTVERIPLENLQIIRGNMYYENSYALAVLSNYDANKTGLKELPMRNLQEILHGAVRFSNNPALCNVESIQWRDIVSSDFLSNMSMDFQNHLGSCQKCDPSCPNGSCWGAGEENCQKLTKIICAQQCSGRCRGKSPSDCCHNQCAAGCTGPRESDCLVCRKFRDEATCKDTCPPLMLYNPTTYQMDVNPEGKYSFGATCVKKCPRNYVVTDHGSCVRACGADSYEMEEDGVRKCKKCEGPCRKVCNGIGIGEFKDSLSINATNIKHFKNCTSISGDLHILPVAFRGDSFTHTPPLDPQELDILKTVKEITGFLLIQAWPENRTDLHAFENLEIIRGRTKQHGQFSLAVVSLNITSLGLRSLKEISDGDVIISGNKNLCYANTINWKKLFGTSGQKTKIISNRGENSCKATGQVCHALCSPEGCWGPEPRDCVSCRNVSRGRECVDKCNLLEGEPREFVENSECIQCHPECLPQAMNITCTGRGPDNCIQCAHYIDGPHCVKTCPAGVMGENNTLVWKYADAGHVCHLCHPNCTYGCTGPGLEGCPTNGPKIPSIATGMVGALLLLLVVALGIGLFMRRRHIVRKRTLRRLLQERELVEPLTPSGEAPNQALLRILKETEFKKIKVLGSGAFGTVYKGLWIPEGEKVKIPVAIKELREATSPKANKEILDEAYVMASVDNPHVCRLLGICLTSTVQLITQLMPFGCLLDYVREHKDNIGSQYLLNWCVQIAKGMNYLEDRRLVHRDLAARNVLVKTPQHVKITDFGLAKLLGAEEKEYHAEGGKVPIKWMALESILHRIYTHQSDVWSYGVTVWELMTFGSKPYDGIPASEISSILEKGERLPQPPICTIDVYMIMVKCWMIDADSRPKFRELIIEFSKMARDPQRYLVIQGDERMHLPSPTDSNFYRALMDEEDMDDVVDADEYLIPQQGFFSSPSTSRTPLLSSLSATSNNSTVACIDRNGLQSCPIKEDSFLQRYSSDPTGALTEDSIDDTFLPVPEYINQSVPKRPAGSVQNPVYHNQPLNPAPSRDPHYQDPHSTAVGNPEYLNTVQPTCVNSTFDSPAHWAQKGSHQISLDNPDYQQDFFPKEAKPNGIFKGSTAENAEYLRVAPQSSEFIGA
Receptor tyrosine-protein kinase erbB-2, sequence (P04626 whole entry): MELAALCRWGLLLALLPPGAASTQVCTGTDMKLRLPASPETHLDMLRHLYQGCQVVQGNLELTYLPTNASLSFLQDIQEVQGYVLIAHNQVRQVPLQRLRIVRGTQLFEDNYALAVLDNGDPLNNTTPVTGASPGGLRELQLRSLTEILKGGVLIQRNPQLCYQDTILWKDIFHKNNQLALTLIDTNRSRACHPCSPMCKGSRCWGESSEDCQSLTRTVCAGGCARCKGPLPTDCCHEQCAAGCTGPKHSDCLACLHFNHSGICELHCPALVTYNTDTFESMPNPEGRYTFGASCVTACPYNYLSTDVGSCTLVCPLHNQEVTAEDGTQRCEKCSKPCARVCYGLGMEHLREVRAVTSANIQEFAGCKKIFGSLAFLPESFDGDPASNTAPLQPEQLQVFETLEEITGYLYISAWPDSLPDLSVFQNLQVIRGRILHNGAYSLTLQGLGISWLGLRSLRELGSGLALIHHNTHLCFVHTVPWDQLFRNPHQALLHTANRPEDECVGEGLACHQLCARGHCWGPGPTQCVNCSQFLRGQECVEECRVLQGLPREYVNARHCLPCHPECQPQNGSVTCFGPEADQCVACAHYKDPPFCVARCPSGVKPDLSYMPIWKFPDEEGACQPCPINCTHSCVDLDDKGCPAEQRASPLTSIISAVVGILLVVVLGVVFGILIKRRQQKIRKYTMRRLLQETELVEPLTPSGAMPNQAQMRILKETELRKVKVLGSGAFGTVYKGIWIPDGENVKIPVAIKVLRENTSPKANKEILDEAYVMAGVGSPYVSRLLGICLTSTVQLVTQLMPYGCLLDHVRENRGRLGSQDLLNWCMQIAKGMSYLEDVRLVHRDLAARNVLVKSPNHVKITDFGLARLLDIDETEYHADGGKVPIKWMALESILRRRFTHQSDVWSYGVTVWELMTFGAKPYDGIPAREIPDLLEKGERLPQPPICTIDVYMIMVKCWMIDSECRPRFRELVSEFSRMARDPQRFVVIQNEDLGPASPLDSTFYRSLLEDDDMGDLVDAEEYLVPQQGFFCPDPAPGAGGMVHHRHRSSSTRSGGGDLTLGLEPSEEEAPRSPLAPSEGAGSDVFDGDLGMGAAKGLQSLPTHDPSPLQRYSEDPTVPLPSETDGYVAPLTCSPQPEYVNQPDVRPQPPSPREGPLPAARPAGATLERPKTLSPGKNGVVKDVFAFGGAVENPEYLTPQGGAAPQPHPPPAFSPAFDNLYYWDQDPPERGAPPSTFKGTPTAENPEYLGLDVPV

- clearance [1]: 53 mL/min/kg
- bioavailability [2]: 85%
- bioavailability [3]: 56%
- IC50 [4]: > 50 µM
- Papp [5]: 15 ×10⁻⁶ cm/s
- CL free [6]: 53 µL/min
- clearance [7]: 42 mL/min/kg
- Vd [8]: 1.1 L/kg
- clearance [9]: 8.6 mL/min/kg
- Ki [10]: 0.679 µM
- Vd [11]: 2.6 L/kg
- CL free [12]: 14 µL/min
- half-life [13]: 0.7 h
- microsomal CLint [14]: 8 µL/min/mg
- half-life [15]: 0.617 h
- IC50 [16]: > 50 µM
- IC50 [17]: 19 µM
- Ki [18]: 32.4 µM
- CL free [19]: 7.6 µL/min
- bioavailability [20]: 62%
- microsomal CLint [21]: < 15 µL/min/mg
- Vd [22]: 1.4 L/kg
- Vd [23]: 0.8 L/kg
- half-life [24]: 2.68 h
- IC50 [25]: > 50 µM
- CL free [26]: 2.8 µL/min
- CL free [27]: 2.1 µL/min
- clearance [28]: 48 mL/min/kg
- half-life [29]: 1.1 h
- bioavailability [30]: 109%
- solubility [31]: > 2000 µg/mL
- half-life [32]: 1.3 h
- half-life [33]: 0.3 h
- half-life at 1 µM [34]: 2.68 h
- Ki [35]: 0.131 µM
Structure (SMILES): C=CC(=O)N1C[C@H](Nc2ncnc3[nH]ccc23)CC[C@@H]1C [RITLECITINIB]

Reference: ChEMBL document CHEMBL4004825 (J Med Chem, 2017)
